This is an account of results in patent US6514951B1, “Pour-on formulations effective for the control of internal and external parasites of homothermic animals” (American Cyanamid Company, priority 1989, dated 2003).

This assay relates to gastrointestinal nematodes. Briefly: Influence of simulated rain on reduction of nematode egg output in feces of cattle after pour-on. Particulars: at all times posttreatment regardless of exposure to simulated rainfall. The format is in vivo, Cooperia, Haemonchus, Ostertagia and Trichostrongylus. The text has this: The objective of this study is to determine the potential effect of rainfall on the efficacy of a pour-on formulation of 23-(O-methyloxime)-LL-F28249α (0.5% w/v) against gastrointestinal nematodes. Formulation 10 reported in Example 2, above, is employed for the study.
Forty-eight mixed beef breed heifers are ranked according to the average of the day −3 and day −2 fecal nematode egg counts and randomly assigned to the following groups of 6 animals each:
All cattle treated with 23-(O-methyloxime)-LL-F28249α pour-on are treated with 0.5 mg 23-(O-methyloxime)-LL-F28249α per kg of body weight. All animals exposed to simulated rain are sprayed with the equivalent of 1 inch of water for 30 minutes.
Following treatment, cattle are housed in outdoor pens which are partially covered by a three sided shed. Cattle remain outdoors during the entire posttreatment period. However, they are confined to a covered portion of the pen when it is raining or rainfall is imminent. […]
The simulated rainfall apparatus used in this trial consists of a 12 feet×12 feet pen with right angle directional spray nozzles in each corner. It is calculated that 89.75 gallons of water applied to this size pen are the equivalent of 1 inch of rain. […]
Fecal samples are taken from all animals on days 7, 14 and 21 posttreatment to evaluate nematode egg counts. The values are expressed as number of eggs per 1 g of feces.

With `CO/N=C1\C[C@]2(C[C@@H]3CC(C/C=C(\C)C[C@@H](C)/C=C/C=C4\CO[C@@H]5[C@H](O)C(C)=C[C@@H](C(=O)O3)[C@]45O)O2)O[C@H](/C(C)=C/C(C)C)[C@H]1C` [23-(O-methyloxime)-LL-F28249α], the “nematode egg counts (in words)” value was “significantly reduces”.
